Tested on: patients with irritable bowel syndrome (IBS)
Test: 48-week treatment of IBS patients: abdominal discomfort, abdominal bloating, severity of constipation (Example 3)
Assay type: in vivo, human
Design: key to Abdominal discomfort, Change from Baseline, Median / Abdominal bloating, Change from Baseline, Median: change on 0 (absent) to 4 (very severe) scale; key to Severity of Constipation, Change from Baseline, Median: change on 0 (very loose) to 4 (very hard) scale
Conditions: for Abdominal bloating, Mean ± SD / Abdominal bloating, Median / Abdominal discomfort, Mean ± SD / Abdominal discomfort, Median / Severity of Constipation, Mean ± SD / Severity of Constipation, Median: scale 0-4
Description: Patients with irritable bowel syndrome (IBS) were treated with 48 μg of Compound A (24 μg of Compound A b.i.d) for 48 weeks.
In this study, we evaluated the following parameters. • 1) Abdominal discomfort • 2) Abdominal bloating • 3) Severity of Constipation
Each of Abdominal discomfort and Abdominal bloating was evaluated on a scale of: 0 (absent), 1 (mild), 2 (moderate), 3 (severe) and 4 (very severe) in the patients. Severity of Constipation was evaluated on a scale of: 0 (very loose), 1: (loose), 2: (normal), 3 (hard), 4 (very hard) in the patients.

CCCCC(F)(F)C(=O)CCC1C(O)CC(=O)C1CCCCCCC(=O)O (stereo not shown) [Compound A, 13,14-dihydro-15-keto-16,16-difluoro-PGE1]
Efficacy in IBS patients (Tables 2 to 4) (48 μg/day, 12 months treatment): effective | Abdominal bloating, Mean ± SD (Baseline): 2.23 ± 0.927 (183) | Abdominal bloating, Median (Baseline): 2.00 | Abdominal discomfort, Mean ± SD (Baseline): 1.95 ± 0.850 (183) | Abdominal discomfort, Median (Baseline): 2.00 | Severity of Constipation, Mean ± SD (Baseline): 2.95 ± 0.751 (183) | Severity of Constipation, Median (Baseline): 3.00 | Abdominal bloating, Change from Baseline, Mean ± SD (End of Treatment, 48 μg/day): −0.73 ± 1.075 (183) | Abdominal bloating, Change from Baseline, Median (End of Treatment, 48 μg/day): −1.00 | Abdominal discomfort, Change from Baseline, Mean ± SD (End of Treatment, 48 μg/day): −0.66 ± 1.112 (183) | Abdominal discomfort, Change from Baseline, Median (End of Treatment, 48 μg/day): −1.00 | Severity of Constipation, Change from Baseline, Mean ± SD (End of Treatment, 48 μg/day): −1.11 ± 1.148 (183) | Severity of Constipation, Change from Baseline, Median (End of Treatment, 48 μg/day): −1.00 | Abdominal bloating, Mean ± SD (End of Treatment, 48 μg/day): 1.50 ± 1.005 (183) | Abdominal bloating, Median (End of Treatment, 48 μg/day): 1.00 | Abdominal discomfort, Mean ± SD (End of Treatment, 48 μg/day): 1.28 ± 1.020 (183) | Abdominal discomfort, Median (End of Treatment, 48 μg/day): 1.00 | Severity of Constipation, Mean ± SD (End of Treatment, 48 μg/day): 1.84 ± 1.120 (183) | Severity of Constipation, Median (End of Treatment, 48 μg/day): 2.00 | Abdominal bloating, Change from Baseline, Mean ± SD (Follow-Up): −0.69 ± 1.109 (121) | Abdominal bloating, Change from Baseline, Median (Follow-Up): −1.00 | Abdominal discomfort, Change from Baseline, Mean ± SD (Follow-Up): −0.55 ± 1.080 (121) | Abdominal discomfort, Change from Baseline, Median (Follow-Up): −1.00 | Severity of Constipation, Change from Baseline, Mean ± SD (Follow-Up): −0.88 ± 1.122 (121) | Severity of Constipation, Change from Baseline, Median (Follow-Up): −1.00 | Abdominal bloating, Mean ± SD (Follow-Up): 1.55 ± 0.957 (121) | Abdominal bloating, Median (Follow-Up): 2.00 | Abdominal discomfort, Mean ± SD (Follow-Up): 1.40 ± 0.996 (121) | Abdominal discomfort, Median (Follow-Up): 1.00 | Severity of Constipation, Mean ± SD (Follow-Up): 2.07 ± 0.946 (121) | Severity of Constipation, Median (Follow-Up): 2.00 | Abdominal bloating, Change from Baseline, Mean ± SD (Week 12, 48 μg/day): −0.84 ± 1.045 (135) | Abdominal bloating, Change from Baseline, Median (Week 12, 48 μg/day): −1.00 | Abdominal discomfort, Change from Baseline, Mean ± SD (Week 12, 48 μg/day): −0.79 ± 0.993 (135) | Abdominal discomfort, Change from Baseline, Median (Week 12, 48 μg/day): −1.00 | Severity of Constipation, Change from Baseline, Mean ± SD (Week 12, 48 μg/day): −1.16 ± 1.099 (135) | Severity of Constipation, Change from Baseline, Median (Week 12, 48 μg/day): −1.00 | Abdominal bloating, Mean ± SD (Week 12, 48 μg/day): 1.43 ± 0.919 (135) | Abdominal bloating, Median (Week 12, 48 μg/day): 1.00 | Abdominal discomfort, Mean ± SD (Week 12, 48 μg/day): 1.16 ± 0.836 (135) | Abdominal discomfort, Median (Week 12, 48 μg/day): 1.00 | Severity of Constipation, Mean ± SD (Week 12, 48 μg/day): 1.76 ± 1.003 (135) | Severity of Constipation, Median (Week 12, 48 μg/day): 2.00 | Abdominal bloating, Change from Baseline, Mean ± SD (Week 18, 48 μg/day): −1.07 ± 1.068 (111) | Abdominal bloating, Change from Baseline, Median (Week 18, 48 μg/day): −1.00 | Abdominal discomfort, Change from Baseline, Mean ± SD (Week 18, 48 μg/day): −0.97 ± 1.031 (111) | Abdominal discomfort, Change from Baseline, Median (Week 18, 48 μg/day): −1.00 | Severity of Constipation, Change from Baseline, Mean ± SD (Week 18, 48 μg/day): −1.59 ± 1.148 (111) | Severity of Constipation, Change from Baseline, Median (Week 18, 48 μg/day): −2.00 | Abdominal bloating, Mean ± SD (Week 18, 48 μg/day): 1.19 ± 0.837 (111) | Abdominal bloating, Median (Week 18, 48 μg/day): 1.00 | Abdominal discomfort, Mean ± SD (Week 18, 48 μg/day): 0.98 ± 0.874 (111) | Abdominal discomfort, Median (Week 18, 48 μg/day): 1.00 | Severity of Constipation, Mean ± SD (Week 18, 48 μg/day): 1.33 ± 0.985 (111) | Severity of Constipation, Median (Week 18, 48 μg/day): 1.00 | Abdominal bloating, Change from Baseline, Mean ± SD (Week 24, 48 μg/day): −0.95 ± 1.102 (107) | Abdominal bloating, Change from Baseline, Median (Week 24, 48 μg/day): −1.00 | Abdominal discomfort, Change from Baseline, Mean ± SD (Week 24, 48 μg/day): −0.82 ± 1.035 (107) | Abdominal discomfort, Change from Baseline, Median (Week 24, 48 μg/day): −1.00 | Severity of Constipation, Change from Baseline, Mean ± SD (Week 24, 48 μg/day): −1.40 ± 1.036 (107) | Severity of Constipation, Change from Baseline, Median (Week 24, 48 μg/day): −1.00 | Abdominal bloating, Mean ± SD (Week 24, 48 μg/day): 1.26 ± 0.915 (107) | Abdominal bloating, Median (Week 24, 48 μg/day): 1.00 | Abdominal discomfort, Mean ± SD (Week 24, 48 μg/day): 1.09 ± 0.917 (107) | Abdominal discomfort, Median (Week 24, 48 μg/day): 1.00 | Severity of Constipation, Mean ± SD (Week 24, 48 μg/day): 1.50 ± 0.965 (107) | Severity of Constipation, Median (Week 24, 48 μg/day): 1.00 | Abdominal bloating, Change from Baseline, Mean ± SD (Week 36, 48 μg/day): −1.00 ± 1.134 (57) | Abdominal bloating, Change from Baseline, Median (Week 36, 48 μg/day): −1.00 | Abdominal discomfort, Change from Baseline, Mean ± SD (Week 36, 48 μg/day): −0.77 ± 0.926 (57) | Abdominal discomfort, Change from Baseline, Median (Week 36, 48 μg/day): −1.00 | Severity of Constipation, Change from Baseline, Mean ± SD (Week 36, 48 μg/day): −1.33 ± 1.123 (57) | Severity of Constipation, Change from Baseline, Median (Week 36, 48 μg/day): −1.00 | Abdominal bloating, Mean ± SD (Week 36, 48 μg/day): 1.05 ± 0.854 (57) | Abdominal bloating, Median (Week 36, 48 μg/day): 1.00 | Abdominal discomfort, Mean ± SD (Week 36, 48 μg/day): 0.93 ± 0.799 (57) | Abdominal discomfort, Median (Week 36, 48 μg/day): 1.00 | Severity of Constipation, Mean ± SD (Week 36, 48 μg/day): 1.39 ± 0.921 (57) | Severity of Constipation, Median (Week 36, 48 μg/day): 1.00 | Abdominal bloating, Change from Baseline, Mean ± SD (Week 48, 48 μg/day): −0.94 ± 0.802 (52) | Abdominal bloating, Change from Baseline, Median (Week 48, 48 μg/day): −1.00 | Abdominal discomfort, Change from Baseline, Mean ± SD (Week 48, 48 μg/day): −0.81 ± 0.908 (52) | Abdominal discomfort, Change from Baseline, Median (Week 48, 48 μg/day): −1.00 | Severity of Constipation, Change from Baseline, Mean ± SD (Week 48, 48 μg/day): −1.37 ± 1.095 (51) | Severity of Constipation, Change from Baseline, Median (Week 48, 48 μg/day): −1.00 | Abdominal bloating, Mean ± SD (Week 48, 48 μg/day): 1.12 ± 0.832 (52) | Abdominal bloating, Median (Week 48, 48 μg/day): 1.00 | Abdominal discomfort, Mean ± SD (Week 48, 48 μg/day): 0.87 ± 0.929 (52) | Abdominal discomfort, Median (Week 48, 48 μg/day): 1.00 | Severity of Constipation, Mean ± SD (Week 48, 48 μg/day): 1.37 ± 0.894 (51) | Severity of Constipation, Median (Week 48, 48 μg/day): 1.00
